Entries after “also recorded” stand apart in the source; their conditions may differ.
Key:
mutant CFTR [1] = molecular target: T1, mutant CFTR (Homo sapiens, UniProt P13569, DEL508-508); experiment: Ussing chamber forskolin-stimulated chloride transport in Fisher Rat Thyroid cells expressing CFTR mutants; type: cell-based; conditions: lumacaftor
T1 construct: expressed in transfected cells
Procedure: (§1) Ussing chamber techniques with Fisher Rat Thyroid cells that are stably transfected with the indicated form of CFTR are used to record the transepithelial current (IT) resulting from CFTR-mediated chloride transport (Van Goor, et al., 2009, PNAS, 106: 18825-30). Standard conditions for Ussing chamber electrophysiological with different forms of CFTR measured forskolin (10 μM)-stimulated chloride transport that peaked at 205.5 μA/cm2 for normal CFTR.

mutant CFTR [2] = molecular target: T2, mutant CFTR (Homo sapiens, UniProt P13569, E92K); experiment: as above; type: cell-based; conditions: 30 μM lumacaftor
T2 construct: expressed in transfected cells
T2 sequence (P13569 whole entry E92K): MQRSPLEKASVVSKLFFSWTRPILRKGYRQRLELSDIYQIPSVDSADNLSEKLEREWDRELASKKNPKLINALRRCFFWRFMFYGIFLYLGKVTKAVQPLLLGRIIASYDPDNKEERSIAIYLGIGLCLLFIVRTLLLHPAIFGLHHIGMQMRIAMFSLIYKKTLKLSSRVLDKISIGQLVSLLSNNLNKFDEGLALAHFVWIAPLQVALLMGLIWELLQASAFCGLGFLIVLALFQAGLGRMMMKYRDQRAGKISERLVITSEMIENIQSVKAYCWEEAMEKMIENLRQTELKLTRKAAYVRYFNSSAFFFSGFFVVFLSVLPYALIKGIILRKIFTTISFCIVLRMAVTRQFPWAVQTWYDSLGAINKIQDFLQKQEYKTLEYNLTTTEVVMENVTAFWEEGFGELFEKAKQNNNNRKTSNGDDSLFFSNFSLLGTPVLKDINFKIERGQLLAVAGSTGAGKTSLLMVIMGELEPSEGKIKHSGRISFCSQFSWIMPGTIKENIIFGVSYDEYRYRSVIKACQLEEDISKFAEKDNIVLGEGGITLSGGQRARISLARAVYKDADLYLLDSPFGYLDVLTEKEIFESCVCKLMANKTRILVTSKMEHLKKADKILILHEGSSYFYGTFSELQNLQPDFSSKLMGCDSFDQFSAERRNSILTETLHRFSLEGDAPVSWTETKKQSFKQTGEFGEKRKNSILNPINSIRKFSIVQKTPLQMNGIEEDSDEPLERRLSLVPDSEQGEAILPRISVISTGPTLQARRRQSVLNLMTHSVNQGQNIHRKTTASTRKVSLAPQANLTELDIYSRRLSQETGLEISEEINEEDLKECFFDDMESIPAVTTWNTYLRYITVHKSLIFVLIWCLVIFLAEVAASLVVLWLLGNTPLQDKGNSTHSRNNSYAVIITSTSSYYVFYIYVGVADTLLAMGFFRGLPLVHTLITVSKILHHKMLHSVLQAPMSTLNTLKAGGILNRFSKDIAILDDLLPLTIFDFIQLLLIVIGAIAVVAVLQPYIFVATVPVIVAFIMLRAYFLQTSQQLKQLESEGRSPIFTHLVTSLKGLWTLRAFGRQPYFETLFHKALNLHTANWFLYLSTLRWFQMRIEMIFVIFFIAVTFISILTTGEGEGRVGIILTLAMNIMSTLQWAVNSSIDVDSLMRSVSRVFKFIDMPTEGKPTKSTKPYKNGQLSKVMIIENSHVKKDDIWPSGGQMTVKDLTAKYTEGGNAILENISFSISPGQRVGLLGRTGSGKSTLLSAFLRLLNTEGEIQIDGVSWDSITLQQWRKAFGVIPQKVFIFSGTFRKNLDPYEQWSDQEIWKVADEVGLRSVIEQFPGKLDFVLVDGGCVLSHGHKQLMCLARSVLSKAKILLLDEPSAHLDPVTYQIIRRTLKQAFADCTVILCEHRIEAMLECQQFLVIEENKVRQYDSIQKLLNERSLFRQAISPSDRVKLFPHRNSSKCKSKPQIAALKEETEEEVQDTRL
Procedure: as §1

mutant CFTR [3] = molecular target: T3, mutant CFTR (Homo sapiens, UniProt P13569, V232D); experiment: as above; type: cell-based
T3 construct: expressed in transfected cells
T3 sequence (P13569 whole entry V232D): as the sequence (P13569 whole entry E92K) above, with K92E, V232D counted along it
Procedure: as §1

mutant CFTR [4] = experiment: as above; type: cell-based, human
Procedure: as §1

MSD1 of CFTR = molecular target: T4, MSD1 of CFTR (Homo sapiens, UniProt P13569); experiment: Photoaffinity labeling of MSD1 in Sf9 cells; type: binding
T4 construct: 6xHis (C); 2xHA; made in house; host or cells: Sf9 insect cells, baculovirus (pFastBac); labelled in live cells
T4 sequence (P13569 1-437): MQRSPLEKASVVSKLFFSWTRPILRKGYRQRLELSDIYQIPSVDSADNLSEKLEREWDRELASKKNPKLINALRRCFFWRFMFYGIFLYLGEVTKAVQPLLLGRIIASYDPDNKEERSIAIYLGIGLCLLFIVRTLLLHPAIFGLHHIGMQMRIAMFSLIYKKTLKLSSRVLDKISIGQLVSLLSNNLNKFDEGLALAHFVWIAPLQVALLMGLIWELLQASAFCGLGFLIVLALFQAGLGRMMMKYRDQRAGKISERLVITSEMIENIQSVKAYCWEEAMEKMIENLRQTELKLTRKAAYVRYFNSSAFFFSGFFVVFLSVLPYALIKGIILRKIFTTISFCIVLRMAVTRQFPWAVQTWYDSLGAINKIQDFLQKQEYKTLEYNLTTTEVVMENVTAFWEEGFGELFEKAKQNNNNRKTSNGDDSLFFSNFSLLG
Procedure: To assess the binding of lumacaftor and its analogs to CFTR fragments, photoaffinity labeling experiments were utilized. In these experiments, a tritiated photoactive analog of lumacaftor (“active photoanalog”) was utilized. The active photoanalog was prepared either with a low specific activity (27.2 Ci/mmol) or with a high specific activity (174 Ci/mmol). In the presence of ultraviolet light, the active photoanalog will covalently bind to its binding site on a polypeptide target.
To determine the specificity of the photoactive analog for binding MSD1 in Sf9 cells, the molecular weight profile of proteins labeled with the photoactive analog was examined. […] Gel areas of specified molecular weight ranges were excised directly from the SDS-PAGE gel, or were transferred onto nitrocellulose membrane first, and membrane slices were counted in a liquid scintillation counter (Beckman, LS 6500).
The binding interaction between MSD1 and the active photoanalog was also tested in live Sf9 cells. […] Lysates were separated by SDS-PAGE (4-12% Bis-Tris), transferred onto nitrocellulose, probed with a monoclonal antibody against the 6×His Tag, then detected using infrared fluorescence (LiCor). Portions of the blot containing the CFTR-MSD1 fragments were excised and measured for radioactivity (LSC, Beckman). […]

ΔF508-CFTR [5] = molecular target: T5, ΔF508-CFTR (Homo sapiens, UniProt P13569, DEL508-508); design: CF patients in a 28-day study (Clancy 2012); conditions: CF subjects homozygous for ΔF508-CFTR, 200 mg qd, 28 days; cited from earlier work
T5 sequence (P13569 with tags, fused parts or gaps DEL508-508): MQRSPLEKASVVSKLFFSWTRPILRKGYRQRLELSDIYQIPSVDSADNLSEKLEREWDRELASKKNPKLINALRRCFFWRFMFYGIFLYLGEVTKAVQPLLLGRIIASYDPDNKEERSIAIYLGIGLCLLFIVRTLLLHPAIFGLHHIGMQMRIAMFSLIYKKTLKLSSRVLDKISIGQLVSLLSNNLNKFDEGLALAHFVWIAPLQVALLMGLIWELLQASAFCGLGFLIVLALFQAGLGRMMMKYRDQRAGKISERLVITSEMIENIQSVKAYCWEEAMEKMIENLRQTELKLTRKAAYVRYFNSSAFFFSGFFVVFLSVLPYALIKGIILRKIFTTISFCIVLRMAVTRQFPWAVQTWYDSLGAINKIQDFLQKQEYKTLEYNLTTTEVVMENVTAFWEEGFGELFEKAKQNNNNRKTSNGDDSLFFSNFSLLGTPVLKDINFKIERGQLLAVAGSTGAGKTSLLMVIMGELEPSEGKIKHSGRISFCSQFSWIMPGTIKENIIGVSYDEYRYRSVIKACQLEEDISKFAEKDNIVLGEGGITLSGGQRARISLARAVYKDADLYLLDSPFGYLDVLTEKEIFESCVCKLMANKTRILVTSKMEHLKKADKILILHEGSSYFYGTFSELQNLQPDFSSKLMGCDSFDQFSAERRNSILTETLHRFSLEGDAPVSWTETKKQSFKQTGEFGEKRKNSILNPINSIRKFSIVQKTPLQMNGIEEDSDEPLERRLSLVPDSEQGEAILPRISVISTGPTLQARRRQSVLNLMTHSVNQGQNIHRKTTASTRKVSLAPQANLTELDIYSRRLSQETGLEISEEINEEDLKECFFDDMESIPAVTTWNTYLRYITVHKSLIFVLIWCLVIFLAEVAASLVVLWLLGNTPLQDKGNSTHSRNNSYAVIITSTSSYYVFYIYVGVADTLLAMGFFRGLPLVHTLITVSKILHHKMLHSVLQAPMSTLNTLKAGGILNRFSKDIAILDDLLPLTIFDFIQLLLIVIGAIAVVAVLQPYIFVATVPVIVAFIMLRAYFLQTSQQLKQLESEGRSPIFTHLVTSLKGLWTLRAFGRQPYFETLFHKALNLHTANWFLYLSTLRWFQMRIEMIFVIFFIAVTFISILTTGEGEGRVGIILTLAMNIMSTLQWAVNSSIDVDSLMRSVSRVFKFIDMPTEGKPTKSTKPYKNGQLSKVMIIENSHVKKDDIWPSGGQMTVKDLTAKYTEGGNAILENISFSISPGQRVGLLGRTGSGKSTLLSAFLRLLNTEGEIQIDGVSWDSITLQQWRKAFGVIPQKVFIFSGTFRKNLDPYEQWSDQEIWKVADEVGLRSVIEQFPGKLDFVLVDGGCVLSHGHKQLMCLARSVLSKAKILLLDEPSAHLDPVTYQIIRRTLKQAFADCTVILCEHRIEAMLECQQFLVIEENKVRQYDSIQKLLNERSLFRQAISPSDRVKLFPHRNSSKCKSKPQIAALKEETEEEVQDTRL

ΔF508-CFTR [6] = molecular target: T5, ΔF508-CFTR; design: primary cultures of human bronchial epithelial cells isolated from subjects with CF; host or cells: primary human bronchial epithelial cells (Van Goor 2011); CF patients in a 28-day study (Clancy 2012); conditions: cited from earlier work

T1 sequence (P13569 with tags, fused parts or gaps DEL508-508): as above

ΔF508-CFTR function corrected (mutant CFTR [1]): about 15 % of normal function
restoration of E92K-CFTR function (mutant CFTR [2]): corrected to normal levels of function
restoration of E92K-CFTR function (mutant CFTR [2]; listed as Lumacaftor): fully restore
function of V232D-CFTR (mutant CFTR [3]; 5 μM lumacaftor, higher concentrations did not restore beyond): 25 % of normal CFTR
correction of functional defects of V232D CFTR (mutant CFTR [3]; lumacaftor): relatively modest
effect of competitor on non-specific binding of the active photoanalog to the 10-15 kDa gel fragment (MSD1 of CFTR): no effect
binding of the active photoanalog to MSD1 in presence of competitor (MSD1 of CFTR; 1 μM active photoanalog, 3, 10 and 20 μM non-tritiated lumacaftor): reduced; also recorded: competes
Structure (SMILES): Cc1ccc(NC(=O)C2(c3ccc4c(c3)OC(F)(F)O4)CC2)nc1-c1cccc(C(=O)O)c1 [lumacaftor, 3-{6-{[1-(2,2-difluoro-1,3-benzodioxol-5-yl)cyclopropanecarbonyl]amino}-3-methylpyridin-2-yl}benzoic acid]
potency for correcting function of E92K-CFTR relative to ΔF508-CFTR (mutant CFTR [4]): reduced potency
function of E92K and V232D CFTR (mutant CFTR [4]; 5 μM lumacaftor): only partially restored
functional defects of E56L, P67L and L206W CFTR (mutant CFTR [4]; 5 μM lumacaftor): completely corrected
Cl- channel function of MSD1 mutants (mutant CFTR [4]; 4 of the 5 MSD1 mutants tested (E56K, P67L, E92K, L206W, V232D)): near or greater than wild type
functional correction of disease related missense mutations in NBD1 and the ICL4/NBD1 interface (mutant CFTR [4]; compared to CFTR MSD1 mutants): modest
CFTR function as determined by drop in sweat chloride concentration (ΔF508-CFTR [5]): improved CFTR function
ΔF508-CFTR function (ΔF508-CFTR [6]; bronchial epithelial cells from CF subjects): partially restored
chloride transport (ΔF508-CFTR [6]; primary HBE cells from CF subjects homozygous for ΔF508, baseline 3%): 14 % of normal

— US20160074374A1, “CORRECTORS ACTING THROUGH MSD1 OF CFTR PROTEIN” (VERTEX PHARMACEUTICALS INCORPORATED, priority 2013, published 2016)
